Data from US20260218197A1, “EXTRACELLULAR VESICLE SECRETION REDUCING AGENT FOR REDUCING EXTRACELLULAR VESICLE SECRETION, AND USE OF THE SAME” (THEORIA SCIENCE INC., priority 2020, published 2026).

How the values were obtained:
[1] = test system: MDA-MB-231_Luc_D3H2LN cell line; assay: Mice implanted with breast cancer metastatic cell line; assay type: in vivo; conditions: 40 mg/kg intraperitoneal injection every day from Day 7, vs non-administration group (PBS)
Method: As a breast cancer metastatic cell line, an MDA-MB-231_Luc_D3H2LN cell line (hereafter referred to as D3H2LN) was used. […] Specifically, the amounts of secreted EVs in the parent cell line and the D3H2LN were measured by the NTA analysis in the same manner as in Example A1, and also, expression of PSAT1 in the parent cell line and the D3H2LN were measured by Western blotting.
Immunodeficient mice C. B-17 scid mice (female, 6-week old) were used as mice. The D3H2LN was suspended in PBS to prepare a cell suspension of 1×10^6 cells/100 μL. Then, on the 0th day (Day 0), 100 μL of the cell suspension was subcutaneously implanted in the mammary gland of each mouse by injection. Then, on the 7th day (Day7), the D3H2LN cells had engrafted, and to mice of an inhibitor administration group (n=6), an NCT-503 solution (solvent: PBS) was administered by intraperitoneal injection every day at 40 mg/kg of body weight. To mice of a non-administration group (n=6, Vehicle), the same amount of PBS was administered every day instead of the NCT-503. For each of the mice in both the administration group and the non-administration group, the tumor volume in the primary lesion (mammary gland) was measured every week using an IVIS-Spectrum (Summit Pharmaceuticals International Corporation). Specifically, the tumor volume was calculated as per the mathematical expression using the longest diameter and the shortest diameter (shortest diameter×shortest diameter×longest diameter×0.5). Also, the body weight of each mouse was measured every day to determine the toxicity. On the 35th day (Day 35), the mice were sacrificed and the mammary gland as the primary lesion and the lungs as the metastatic lesion were excised from each mouse, after which the weight of the primary lesion was measured.

[2] = test system: normal epithelial cells in the large intestine (HCoEpiC); assay: Amount of secreted EVs per cell by ExoScreen in normal cells; assay type: cell-based
Method: (§1) EV detection was performed using an AlphaLISA reagent (Perkin Elmer) composed of AlphaScreen streptavidin-coated donor beads (6760002), AlphaLISA unconjugated acceptor beads (6062011), and an AlphaLISA universal buffer (AL001F), a 96-well half-area white plate (6005560, Perkin Elmer), and a detection device EnSpire Alpha 2300 Mutilabel plate reader (Perkin Elmer). Specifically, the EV detection was performed as follows. Each well of the plate was filled with 5 μL of EVs or 10 μL of CM (cell culture supernatant), 10 μL of a 5 nmol/L biotinylated antibody solution prepared using the above-described buffer, and 10 μL of 50 µg/mL AlphaLISA acceptor bead-conjugated antibody. For detection of CD9/CD9 double-positive EVs, a biotinylated anti-human CD9 antibody and an anti-human CD9 antibody conjugated with AlphaLISA acceptor beads were used. For detection of CD9/CD63 double-positive EVs, a biotinylated anti-human CD9 antibody and an anti-human CD63 antibody conjugated with AlphaLISA acceptor beads were used. For detection of CD63/CD63 double-positive EVs, a biotinylated anti-human CD63 antibody and an anti-human CD63 antibody conjugated with AlphaLISA acceptor beads were used. The plate was incubated at 37° C. for 1 hour, and then, 25 μL of 80 μg/mL AlphaScreen streptavidin-coated donor beads were added thereto. The plate was incubated at 37° C. for another 30 minutes in the dark. Next, luminescence in the wells of the plate was measured using the detection device with the excitation wavelength set to 680 nm and the emission detection wavelength set to 615 nm. The antibodies used were both commercially available products, namely, a mouse monoclonal anti-human CD9 (Clone 12A12) and a CD63 antibody (Clone 8A12) (both available from Cosmo Bio).
(§2) The present example examined the effect of NCT-503 on normal cells to provide indirect data showing that NCT-503 reduced EV secretion specific to cancer cells. […] Thereafter, the cell viability was determined and also the amount of secreted EVs was measured by the ExoScreen method.
(§3) Specifically, the test was performed in the following manner. […] Then, the medium in the wells was collected and the cells in the wells were counted. As a control, the same procedures as described above were performed except that DMSO was added instead of the inhibitor solution, and the cells in the wells were counted. Then, the cell viability was calculated assuming that the number of cells in the NCT-free (0 M) medium (i.e., DMSO-containing medium) of the control was a relative value of 1. Also, the amount of secreted EVs was measured by ExoScreen.

[3] = test system: normal epithelial cells in the lung (HBEC); assay: as above; assay type: cell-based
Method: as §1, §2, §3

## Cc1cc(C)nc(NC(=S)N2CCN(Cc3ccc(C(F)(F)F)cc3)CC2)c1 [NCT-503]
[1]; Day 21 and Day 35
  tumor volume of the primary lesion (mammary gland): significantly reduced
[1]; Day 35
  metastatic lesions in the lungs (HE-stained): fewer metastatic lesions
  tumor weight of the primary lesion (mammary gland): significantly reduced
[2]; normal epithelial cells in the large intestine, 0.15625 to 2.5 μmol/L
  difference in amount of secreted EVs, NCT-503-containing medium vs DMSO-containing medium without NCT: almost no difference
[2]; normal epithelium cells in the large intestine, NCT-503 2.5 mol/L (so in the source), 48 hours, ExoScreen
  relative value of the amount of secreted EVs with respect to DMSO-containing medium without NCT (0 µM): 0.98
[3]; normal epithelial cells in the lung, 0.15625 to 2.5 μmol/L
  difference in amount of secreted EVs, NCT-503-containing medium vs DMSO-containing medium without NCT: almost no difference
[3]; normal epithelium cells in the lung, NCT-503 2.5 mol/L (so in the source), 48 hours, ExoScreen
  relative value of the amount of secreted EVs with respect to DMSO-containing medium without NCT (0 µM): 1.17
